Test results as given in patent US9751833B2, “Antimicrobial biguanide metal complexes” (Smith & Nephew PLC, priority 2005, dated 2017).

Tests used:
[1] = test system: Pseudomonas aeruginosa NCIMB 8626; test: Zone of inhibition, seeded Mueller-Hinton agar plug-hole assay; type: cell-based; settings: 10 mg compound + 200 ul sterile water per 8 mm plug hole, 37° C., 24 hours, triplicates averaged
Experimental: (§1) Pseudomonas aeruginosa NCIMB 8626 and Staphylococcus aureus NCTC 10788 were harvested. Serial 1:10 dilutions were performed to give a final concentration of 10^8 bacteria/ml. Further dilutions were made for an inoculum count, down to […], with the number of bacteria/ml determined using the pour plate method.
(§2) Two large assay plates were then set up and 140 ml of Mueller-Hinton agar was added evenly to the large assay plates and allowed to dry (15 minutes). A further 140 ml of agar was seeded with the corresponding test organism and poured over the previous agar layer. Once the agar had set (15 minutes), the plate was dried at 37° C. for 30 minutes with the lid removed. 8 mm plugs were removed from the plate by biopsy punch.
(§3) In triplicate, 10 mg of the compounds prepared in Examples 1-3 were placed onto each plug hole followed by 200 ul sterile water. The plates were then sealed and incubated at 37° C. for 24 hours. The size of the microbial, including bacterial, zone cleared was measured using a Vernier calliper gauge, triplicates were averaged: […]

[2] = test system: Staphylococcus aureus NCTC 10788; test: as above; type: cell-based; settings: 10 mg compound + 200 ul sterile water per 8 mm plug hole, 37° C., 24 hours, triplicates averaged
Experimental: as §1, §2, §3

Substance	Zone of Inhibition [1]	Zone of Inhibition [2]
Silver(III) o-tolybiguanide Complex [Example 3]	7.4 mm	8.4 mm
Silver(III) Chlorhexidine (1,1′-hexamethylenebis[5-(p-chlorophenyl)biguanide] Complex [Example 1]	5.4 mm	6.4 mm
